According to publication PMC4099972, “Extracts from New Zealand Undaria pinnatifida Containing Fucoxanthin as Potential Functional Biomaterials against Cancer in Vitro” (Journal of Functional Biomaterials, 2014):
Read-outs that look alike come from different tables or passages of the source.

Legend:
human non-cancer cells = assay: MTT cell viability, human non-cancer cells (control study); format: cell-based; details: 1.56 μM
Excerpt: Three human non-cancer cell lines including human dermal fibroblasts (HDFb), human umbilical vein endothelial (HUVEC) and human embryonic kidney (HEK293) were used to determine in vitro toxicity of pure fucoxanthin and extracts from NZ U. pinnatifida. All three cell lines were purchased from Invitrogen NZ Ltd. HDFb was maintained in Dulbecco’s Modified Eagle Medium supplemented with LSGS. HUVEC cells were maintained in Cascade Biologics Medium 200 supplemented with LSGS. HEK293 cells were maintained in RPMI 1640 culture medium supplemented with 1% Penicillin-Streptomycin, 4 mM L-glutamine and 10% of FBS.
Cell viability was determined by MTT assay as previously described [34] with a slight modification. […] Treatment time was 24, 48 or 72 h.
Pure fucoxanthin standard and all U. pinnatifida fucoxanthin extracts were dissolved in pure ethanol to 5 mM as a stock solution, and the final ethanol concentration was 2% in the culture medium. An aliquot of 20 μL of MTT reagent in phosphate buffer saline at a concentration of 5 mg/mL was added into each well after experiment, and washed with 150 µL of PBS. After incubation for 4 h at 37 °C, the formed MTT-formazan was dissolved in 150 μL DMSO. The viable cell amount was determined by the absorbance at 540 nm using a multiplate-reader (UV-visible FLUOStar Omega Multidetection Microplate Reader, AlphaTech NZ Ltd., Auckland, New Zealand). […]

[1] = tested on: Lovo cell line (colon adenocarcinoma); assay: MTT cell viability assay, Lovo; format: cell-based; details: Homo sapiens, extract concentrations normalized to fucoxanthin purity, read-out: IC50, growth inhibition
Method: (§1) All cancer cell lines were maintained in tissue culture incubator at 37 °C and 5% carbon dioxide. Cell viability was determined by MTT assay as previously described with a slight modification. Briefly, the optimized seeding cell density was 5000 cells/well for A549 and WiDr, while for Hep G2, Malme-3M, SiHa, NCI-H522, Lovo, SK-N-SH, and MCF-7, the seeding cell density was 10,000 cells/well. Microplate with 96 wells was used for the experiment and each well contained 100 μL of medium with cancer cells. […] All cancer cell lines were cultured in the presence or absence of fucoxanthin extract or standard. […] An aliquot of 20 μL of MTT reagent in phosphate buffer saline at a concentration of 5 mg/mL was added into each well after experiment, and washed with 150 µL of PBS. After incubation for 4 h at 37 °C, the formed MTT-formazan was dissolved in 150 μL DMSO. The viable cell amount was determined by the absorbance at 540 nm using a multiplate-reader (UV-visible FLUOStar Omega Multidetection Microplate Reader, AlphaTech NZ Ltd., Auckland, New Zealand).

[2] = tested on: A549 cell line (lung carcinoma); assay: MTT cell viability assay, A549; format: cell-based; details: Homo sapiens, extract concentrations normalized to fucoxanthin purity, read-out: IC50, growth inhibition
Method: as §1

[3] = cited from earlier work
rats = tested on: rats; set-up: method as in doi:10.3136/nskkk.55.304; details: oral, 750 mg/kg for 28 days, purity 95%; cited from earlier work
[4] = tested on: NCI-H522 cell line (lung cancer); assay: MTT cell viability assay, NCI-H522; format: cell-based; details: Homo sapiens, extract concentrations normalized to fucoxanthin purity, read-out: IC50, growth inhibition
Method: as §1

mouse bone marrow cells = tested on: mouse bone marrow cells; set-up: method as in PMID 21720124, PMID 21720125; details: cited from earlier work
[5] = tested on: human umbilical vein endothelial (HUVEC); assay: MTT cell viability assay, non-cancer HUVEC; format: cell-based; details: extract concentrations normalized to fucoxanthin purity, read-out: IC50, growth inhibition (non-cancer cell line)
Method: (§2) All three cell lines were purchased from Invitrogen NZ Ltd. HDFb was maintained in Dulbecco’s Modified Eagle Medium supplemented with LSGS. HUVEC cells were maintained in Cascade Biologics Medium 200 supplemented with LSGS. HEK293 cells were maintained in RPMI 1640 culture medium supplemented with 1% Penicillin-Streptomycin, 4 mM L-glutamine and 10% of FBS. Cell viability was determined by MTT assay as previously described with a slight modification. Briefly, the optimized seeding cell density was 5000 cells/well for A549 and WiDr, while for Hep G2, Malme-3M, SiHa, NCI-H522, Lovo, SK-N-SH, and MCF-7, the seeding cell density was 10,000 cells/well. Microplate with 96 wells was used for the experiment and each well contained 100 μL of medium with cancer cells. […] All cancer cell lines were cultured in the presence or absence of fucoxanthin extract or standard. […] An aliquot of 20 μL of MTT reagent in phosphate buffer saline at a concentration of 5 mg/mL was added into each well after experiment, and washed with 150 µL of PBS. After incubation for 4 h at 37 °C, the formed MTT-formazan was dissolved in 150 μL DMSO.

[6] = tested on: SiHa cell line (cervix squamous carcinoma); assay: MTT cell viability assay, SiHa; format: cell-based, human; details: extract concentrations normalized to fucoxanthin purity, read-out: IC50, growth inhibition
Method: as §1

[7] = tested on: WiDr cell line (colon adenocarcinoma); assay: MTT cell viability assay, WiDr; format: cell-based; details: Homo sapiens, extract concentrations normalized to fucoxanthin purity, read-out: IC50, growth inhibition
Method: as §1

[8] = tested on: human dermal fibroblasts (HDFb); assay: MTT cell viability assay, non-cancer HDFb; format: cell-based; details: Fibroblast, extract concentrations normalized to fucoxanthin purity, read-out: IC50, growth inhibition (non-cancer cell line)
Method: as §2

[9] = tested on: all tested cancer cell lines (nine human cancer cell lines); assay: MTT cell viability, all tested cancer cell lines; format: cell-based; details: 72 h, read-out: cell viability compared with untreated cell cultures
Method: All nine cancer cell lines were treated with pure fucoxanthin (Sigma) at concentrations of 1.5625, 6.25, 12.5, 25, 50, 80, 100 µM for 24, 48 and 72 h, respectively (Figure 3). There was significant difference between high and low concentrations and between 24, 48 and 72 h treatments (p < 0.05).
Human cancer cell lines used in this study were purchased from ATCC (Cryosite Ltd., Sydney, NSW, Australia), including lung carcinoma line A549, colon adenocarcinoma lines WiDr and Lovo, lung cancer line NCI-H522, hepatocellular carcinoma line Hep G2, neuroblastoma line SK-N-SH, breast adenocarcinoma line MCF, cervix squamous line SiHa, and malignant melanoma line Malme-3M. All nine cell lines were maintained in RPMI 1640 culture medium supplemented with 1% Penicillin-Streptomycin, 4 mM L-glutamine and 10% of FBS except Malme-3M (20% FBS). […]
Cell viability was determined by MTT assay as previously described with a slight modification. […]
Pure fucoxanthin standard and all U. pinnatifida fucoxanthin extracts were dissolved in pure ethanol to 5 mM as a stock solution, and the final ethanol concentration was 2% in the culture medium. […] The viable cell amount was determined by the absorbance at 540 nm using a multiplate-reader (UV-visible FLUOStar Omega Multidetection Microplate Reader, AlphaTech NZ Ltd., Auckland, New Zealand). […]

[10] = tested on: Malme-3M cell line (malignant melanoma); assay: MTT cell viability assay, Malme-3M; format: cell-based, human; details: for IC50: Homo sapiens, extract concentrations normalized to fucoxanthin purity, read-out: IC50, growth inhibition
Method: as §1

[11] = tested on: human embryonic kidney (HEK293); assay: MTT cell viability assay, non-cancer HEK293; format: cell-based; details: for IC50: Homo sapiens, extract concentrations normalized to fucoxanthin purity, read-out: IC50, growth inhibition (non-cancer cell line)
Method: as §2

mice = tested on: mice; set-up: method as in PMID 22072997; details: repeated dose of 500 and 1000 mg/kg for 30 day; cited from earlier work
[12] = tested on: MCF-7 cell line (breast adenocarcinoma); assay: MTT cell viability assay, MCF-7; format: cell-based; details: Homo sapiens, MCF7, extract concentrations normalized to fucoxanthin purity, read-out: IC50, growth inhibition
Method: as §1

[13] = tested on: SK-N-SH cell line (neuroblastoma); assay: MTT cell viability assay, SK-N-SH; format: cell-based; details: Homo sapiens, extract concentrations normalized to fucoxanthin purity, read-out: IC50, growth inhibition
Method: as §1

[14] = tested on: Hep G2 cell line (hepatocellular carcinoma); assay: MTT cell viability assay, Hep G2; format: cell-based; details: Homo sapiens, HepG2, extract concentrations normalized to fucoxanthin purity, read-out: IC50, growth inhibition
Method: as §1

CC(=O)O[C@H]1CC(C)(C)C(=C=C/C(C)=C/C=C/C(C)=C/C=C/C=C(C)/C=C/C=C(\C)C(=O)C[C@@]23O[C@]2(C)C[C@@H](O)CC3(C)C)[C@](C)(O)C1 [Pure fucoxanthin, fucoxanthin]
effect on growth of human non-cancer cells (human non-cancer cells): promote the growth | IC50 ([1]; 48 h treatment): 39.6 ± 0.94 µM | IC50 ([1]; 72 h treatment): 21.8 ± 1.17 µM | IC50 ([2]; A549, 48 h treatment): 44.7 ± 2.26 µM | IC50 ([2]; A549, 72 h treatment): 25.6 ± 1.07 µM | 50% lethal dose [3]: more than 2000 mg/kg body weight | toxicity at repeated doses (rats): did not show obvious toxicity | IC50 ([4]; NCI-H522, 48 h treatment): 46.1 ± 1.07 µM | IC50 ([4]; NCI-H522, 72 h treatment): 24.5 ± 1.58 µM | genotoxic/mutagenic effects (mouse bone marrow cells): not found | IC50 ([5]; 48 h treatment): 3.98 µM | IC50 ([5]; 72 h treatment): 3.36 µM | IC50 ([6]; 48 h treatment): 37.8 µM | IC50 ([6]; Homo sapiens, 48 h, 48 h treatment): 37.6 ± 1.49 µM | IC50 ([6]; Homo sapiens, 72 h, 72 h treatment): 18.9 ± 2.16 µM | IC50 ([7]; 48 h treatment): 42.3 ± 1.25 µM | IC50 ([7]; 72 h treatment): 25 ± 1.63 µM | IC50 ([8]; 48 h treatment): 32.2 µM | IC50 ([8]; 72 h treatment): 15.7 µM | viability at 100 µM [9]: ~20% | IC50 ([10]; 48 h treatment): 28 ± 1.36 µM | IC50 ([10]; 72 h treatment): 17.3 ± 2.65 µM | concentration from which cell viability is significantly decreased ([10]; within 24 h): ≥ 50 µM | growth inhibition effect on cells ([11]; HEK293, 6.25 μM, 24- and 48-h treatment): no growth inhibition effect | IC50 ([11]; HEK293, 48 h treatment): 18.7 µM | IC50 ([11]; HEK293, 72 h treatment): 7.66 µM | histological abnormality in tissues (liver, kidney, spleen, gonadal) (mice): no abnormality was found | IC50 ([12]; MCF-7, 48 h treatment): 44 ± 2.61 µM | IC50 ([12]; MCF-7, 72 h treatment): 22.5 ± 1.26 µM | IC50 ([13]; 48 h treatment): 52.7 ± 1.07 µM | IC50 ([13]; 72 h treatment): 31.2 ± 2.62 µM | IC50 ([14]; Hep G2, 48 h treatment): 58.9 ± 1.23 µM | IC50 ([14]; Hep G2, 72 h treatment): 25.9 ± 1.69 µM
